Patent publication US20250003969A1, “METHODS TO IDENTIFY AND TREAT SUBJECTS HAVING CORTICOSTEROID-RESISTANT INFLAMMATORY DISEASES” (priority 2013, published 2025)
“Also recorded” adds a separate entry of the source.

Tests used:
ERK phosphorylation = assay: Western blot of ERK phosphorylation as downstream read out for TAK1 activation by H. parainfluenzae; assay type: cell-based, human; settings: 2 μM inhibitor, 15 min H. para, bacteria to cell ratio 1:1, monocytes from asthma patients, FIG. 4D
Protocol: (§1) P38 mitogen activated protein kinase (MAPK) stimulation by bacteria. P38 MAPK activation in response to various concentrations of pathogenic and commensal bacteria as well as time course of p38 activation in response to these bacteria was determined. Cells were stimulated with 0.1 and 1 bacteria per cell, at kinetic time frames from 15 min to 3 h (monocytes), or after 3h of stimulation with bacteria (BAL macrophages). […] Protein concentration was determined by Bradford assay and cell lysates were analyzed for p-p38 MAPK expression by Western blot as described by us earlier (Zhang Y et al., J Immunol 2012, in press).
(§2) The effects of inhibitors on cellular response to corticosteroids. […] (Calbiochem, EMD Serono, Inc., Rockland, MA) (2 μM), the p38 inhibitor, SB203580 (10 μM) (Calbiochem) or the cocktail of the three MAPK inhibitors (SB203580, p38 inhibitor; PD98059, MEK1/ERK inhibitor (Invitrogen, Life Technologies, Grand Island, NY) and SP600125, JNK inhibitor (InVivogen, San Diego, CA), all at 10 μM) for 1 h prior to stimulation with bacteria and cellular response to corticosteroids was evaluated by real time PCR as described above. […]

[1] = test system: peripheral blood monocytes from asthmatics; assay: Effects of inhibitors on MKP-1 and IL-8 mRNA induction by H. parainfluenzae and on cellular response to corticosteroids (real time PCR); assay type: cell-based, human; settings: for cellular sensitivity to corticosteroids in vitro (MKP-1 mRNA induction by DEX) in the presence of H. parainfluenzae: inhibitor 1 h, bacteria 15 min, then 3 h DEX, FIG. 4C; for MKP-1 mRNA induction by H. parainfluenzae / IL-8 mRNA induction by H. parainfluenzae: monocytes preincubated with inhibitor 1 h (TAK1 inhibitor 2 μM, others 10 μM); for MKP-1 mRNA induction by H. parainfluenzae: bacteria to cell ratio 1:1, FIG. 4A; for IL-8 mRNA induction by H. parainfluenzae: bacteria to cell ratio 1:1, FIG. 4B
Protocol: Cell culture and treatment. Peripheral blood mononuclear cells (PBMC) were isolated from asthma patients. Monocytes were prepared by negative selection using Human Monocyte Isolation Kit II (Milteniyi Biotech Inc., Auburn, CA). BAL macrophages were enriched by 3 h plastic adhesion. Cell purity was ≥95%. In all experiments, monocytes and BAL macrophages were cultured in the X-VIVO™ 15 serum free medium overnight; medium was replaced with X-VIVO™ 15 medium without antibiotics prior to addition of bacteria. Bacteria were added to 10^6 cells/ml in culture at 0.1 or 1 bacteria per cell.
In vitro response to corticosteroids in the presence of bacteria. 0.5×10^6 monocytes or 2.5×10^5 BAL macrophages per condition were cultured overnight in X-VIVO™ 15 media, treated with 0.1 to 1 bacteria per cell or 10 ng/ml of E. coli strain 0111: B4 LPS (Sigma-Aldrich Corp) for 15 min and stimulated with 10^−6 M dexamethasone (DEX) for an additional 3 h still in the presence of bacteria. Following incubation the cells were preserved in RLT buffer (Qiagen, Inc., Valencia, CA). RNA was extracted using RNAEASYR Mini kit (Qiagen), and analyzed by real-time PCR as previously described (Goleva E et al., J Allergy Clin Immunol 2012; 129: 687-93e1) for the expression of corticosteroid-regulated targets mitogen activated kinase phosphatase 1 (MKP-1), and IL-8. 18s RNA was measured as a house keeping gene. All primers were purchased from Applied Biosystems (Life Technologies Corporation, Carlsbad, CA). Standard curves for gene targets were generated using the fluorescent data from two-fold serial dilutions of total RNA of the highest expression sample. Quantities of each target gene in test samples were normalized to the corresponding levels of the housekeeping gene (18s RNA) in each sample. Fold induction and fold suppression by DEX of selected gene targets was calculated for cells cultured in media, with LPS or with bacteria.
The effects of inhibitors on cellular response to corticosteroids. To examine whether MAPK inhibition or transforming growth factor beta associated kinase 1 (TAK1) inhibition reverses the corticosteroid resistant response to pathogenic microbes, monocytes were pretreated with either TAK1 inhibitor (5Z)-7-Oxozeaenol, Curvularia sp. (Calbiochem, EMD Serono, Inc., Rockland, MA) (2 μM), the p38 inhibitor, SB203580 (10 μM) (Calbiochem) or the cocktail of the three MAPK inhibitors (SB203580, p38 inhibitor; PD98059, MEK1/ERK inhibitor (Invitrogen, Life Technologies, Grand Island, NY) and SP600125, JNK inhibitor (InVivogen, San Diego, CA), all at 10 μM) for 1 h prior to stimulation with bacteria and cellular response to corticosteroids was evaluated by real time PCR as described above. To assess the efficacy of inhibitors on suppression of cell activation induced by bacteria cells were pretreated with inhibitors for 1 h or cultured in media, stimulated with H. parainfluenzae for 15 min. Protein lysates were prepared as described above. ERK and hsp27 phosphorylation as downstream targets for TAK1 and p38 MAPK activation, respectively, were assessed by Western blot as described in (Zhang Y et al., J Immunol 2012, in press; Li L B et al., J Allergy Clin Immunol 2004; 114: 1059-69; Zhang Y et al., J Biol Chem 2009; 284: 24542-52).
Toll-like receptor (TLR) engagement by bacteria is the major pathway of cell activation by bacteria (Akira S, Nat Rev Immunol 2004; 4: 499-511). TAK1 phosphorylation represents a key downstream TLR signaling branching point that controls both MAPK and NFKB pathway activation in the cells (Liew F Y et al., Nat Rev Immunol 2005; 5: 446-58). To address the role of TLR signaling pathways in MAPK and TAK1 activation by H. parainfluenzae and the alteration of cellular response to corticosteroids, asthmatic peripheral blood monocytes were preincubated with/without TAK1 and MAPK inhibitors for 1 hour, stimulated with bacteria followed by treatment with DEX or medium and analyzed by real time PCR.

[2] = Clinical response to oral prednisone burst (FEV1 percent predicted); assay type: in vivo, human; settings: for FEV1% change after Prednisone burst, (Mean ± SD): prednisone 20 mg by mouth twice daily for 7 days; for FEV1% change after Prednisone burst, (Mean ± SE): one week 40 mg/d oral prednisone
Source text: (§3) Study subjects. Thirty-nine adult asthmatics were enrolled in this study. […] Patients completed asthma questionnaires (ACQ) to assess their asthma control. […] Twelve healthy nonatopic subjects underwent bronchoscopy as controls. Smokers were excluded from participation in this study. Informed consent was obtained from all study participants before enrollment in this study.
Corticosteroid response of asthmatics was classified based on their prebronchodilator morning FEV1% predicted response to one week course of 40 mg/d oral prednisone.

[3] = Bronchodilator responsiveness (FEV1 reversal with albuterol); assay type: in vivo, human
Source text: as §3
26 adult asthma patients were enrolled. Sample collection involved assessment of patients with a clinical history of asthma, airflow limitation (baseline FEV1≤85% predicted) and either airway hyperresponsiveness (PC20 methacholine<8 mg/ml) or bronchodilator responsiveness (>12% improvement in FEV1% predicted after […] metered-dose inhaler albuterol).

hsp27 phosphorylation = assay: Western blot of hsp27 phosphorylation as downstream read out for p38 MAPK activation by H. parainfluenzae; assay type: cell-based, human; settings: 10 μM inhibitor, 15 min H. para, bacteria to cell ratio 1:1, monocytes from asthma patients, FIG. 4D
Protocol: as §1, §2

Structure (SMILES): COc1cc(O)c2c(c1)/C=C/C[C@H](O)[C@H](O)C(=O)/C=C\C[C@H](C)OC2=O [TAK1 inhibitor, (5Z)-7-Oxozeaenol]
- ERK phosphorylation by H. parainfluenzae (ERK phosphorylation): fully inhibited
- cellular sensitivity to corticosteroids in vitro (MKP-1 mRNA induction by DEX) in the presence of H. parainfluenzae [1]: restoration of cellular sensitivity to corticosteroids; also recorded: steroid sensitive
- MKP-1 mRNA induction by H. parainfluenzae [1]: significant inhibition
- IL-8 mRNA induction by H. parainfluenzae [1]: significant inhibition

Structure (SMILES): C[C@]12C=CC(=O)C=C1CC[C@@H]1[C@@H]2C(=O)C[C@@]2(C)[C@H]1CC[C@]2(O)C(=O)CO [Prednisone, prednisone]
- FEV1% change after Prednisone burst, (Mean ± SD) ([2]; CR asthma, n = 29): −0.2±5.9%
- FEV1% change after Prednisone burst, (Mean ± SD) ([2]; CS asthma, n = 10): 31.0±23.5%
- FEV1% change after Prednisone burst, (Mean ± SE) ([2]; SR asthma, n = 12): 0.8 ± 1.9 %
- FEV1% change after Prednisone burst, (Mean ± SE) ([2]; SS asthma, n = 13): 42.2 ± 10.0%

Structure (SMILES): CC(C)(C)NCC(O)c1ccc(O)c(CO)c1 (centres unmarked) [Albuterol, albuterol]
- FEV1% reversal with Albuterol, (Mean ± SD) ([3]; CR asthma, n = 29, 180 μg albuterol inhaled): 15.0 ± 9.4%
- FEV1% reversal with Albuterol, (Mean ± SD) ([3]; CS asthma, n = 10, 180 μg albuterol inhaled): 37.2 ± 24.7%
- FEV1% reversal with Albuterol, (Mean ± SD) ([3]; Normal controls, n = 12): 5.1 ± 2.4%
- FEV1% reversal with Albuterol, (Mean ± SE) ([3]; SR asthma, n = 12): 13.3 ± 2.1 %
- FEV1% reversal with Albuterol, (Mean ± SE) ([3]; SS asthma, n = 13): 41.1 ± 8.7%

Structure (SMILES): C[S+]([O-])c1ccc(-c2nc(-c3ccncc3)c(-c3ccc(F)cc3)[nH]2)cc1 (centres unmarked) [P38 MAPK inhibitor, SB203580]
- hsp27 phosphorylation by H. parainfluenzae (hsp27 phosphorylation): fully inhibited
- cellular sensitivity to corticosteroids in vitro (MKP-1 mRNA induction by DEX) in the presence of H. parainfluenzae [1]: failed to restore
- MKP-1 mRNA induction by H. parainfluenzae [1]: reduced
- IL-8 mRNA induction by H. parainfluenzae [1]: reduced
